The values below come from patent publication US20240268421A1, “FOOD COLOURING AGENTS” (v2food Pdy Ltd, priority 2020, published 2024).

Data set [1] can be described thus: Differential scanning fluorometry (DSF) thermal denaturation of clarified phycoerythrin. Type of data set: physicochemical. To be noted: heated 25-95° C. at 0.5° C./10 sec. The method, then:
(§1) Therefore, to gain a precise measurement of the thermal denaturation temperature of phycoerythrin, differential scanning fluorometry (DSF) was undertaken by heating 100 uL of clarified phycoerythrin from 25-95° C. by increasing the temperature by 0.5° C./10 sec.

The test system of data set [2] is Caco-2/HT29-MTX-E12 transwell model. As to the kind of experiment: Ferritin formation in intestinal barrier model (bioavailability of iron). Format: cell-based, Human. On the procedure:
Human Caco-2(enterocytes) and HT29-MTX-E12 (goblet) cells grown on a semi-permeable membrane comprise the intestinal barrier model. The co-cultures were grown on transwells as described below: • Caco-2 cells and HT29-MTX-E12 cells flasks were passaged when ˜90% confluent. • Cells were counted using a haemocytometer (or Coulter counter) to determine cell number/mL. • 0.6 mL growth media (no cells) was added to basolateral chamber of transwells. • 0.2 mL Caco-2/HT29-MTX-E12 cell solution was carefully added into apical chamber to achieve 3.6×104 Caco-2 and 4×10^3 HT29-MTX cells. • Co-cultures were grown on transwells for 21 days with media changed every 2-3 days. • At 21 days transepithelial electric resistance (or TEER) was measured using a Millicell voltohmeter from the apical to basolateral chamber (FIG. 1). These measurements indicate integrity of cell layer ensuring the cells are polarised and an intact barrier is ready for experimentation. […] Treatments were removed, replaced with HBSS, and incubated overnight. • After 16-18 hours cells (on apical side) were washed with PBS before trypsin was applied to remove cells from transwell membranes. • Cells were collected by centrifuging for 5 minutes. • Abcam ferritin assay was conducted according to manufacturer's instructions.
Results from the ferritin assay were analysed for significant differences using unpaired t tests. Differences were deemed significant when P<0.05. All statistical analyses were performed using GraphPad Prism 5 software.
All samples treatments were performed in the presence of 80 μM ascorbic acid.

Data set [3] can be described thus: Heating of phycoerythrin extracts, colour change visualised. Type of data set: physicochemical. The method, then: First, the crude, homogenised phycoerythrin, before clarification, was heated at 95° C. for 5 min and the colour change visualised.
as §1
Thermal denaturation of each Phycoerythrin sample (a)-(d) was undertaken. The results are depicted in FIG. 4.

A short description of data set [4]: Iron binding by fluorescence emission scan. To be noted: 1 mg/mL protein, 0-32 mM iron chloride, excitation 498 nm. On the procedure: Phycoerythrin extract from Example 1 (extraction included ultrasound treatment) was dissolved at a concentration of 2 mg/mL in 20 mM sodium phosphate buffer, pH 7 containing 0.02% sodium azide. Iron (II) chloride was dissolved in the same buffer at an initial concentration of 100 mM. The dissolved phycoerythrin extract was mixed 1:1 with a concentration series of iron chloride to give a final protein concentration of 1 mg/mL and final iron chloride concentrations of 0, 0.25, 0.5, 1, 2, 4, 8, 16 and 32 mM.
A fluorescence emission scan from 515-700 nm using an excitation wavelength of 498 nm was then performed on all samples using a Thermofisher Varioskan Flash (Instrument version 4.00.52). R-phycoerythrin has an emission maximum of 575 nm and therefore if iron binding occurs with the linear tetrapyrrole moiety of the protein, a change in fluorescence will be observed.

The mark [5] stands for this setting: 25 μM Fe solutions, with 4 mg/mL phycoerythrin, 80 μM ascorbic acid.
The mark [6] stands for this setting: 25 μM Fe solutions, with 8 mg/mL phycoerythrin, 80 μM ascorbic acid.
The mark [7] stands for this setting: 25 μM Fe solutions, without phycoerythrin, 80 μM ascorbic acid.
The mark [8] stands for this setting: 25 μM iron, co-treatment with 4 or 8 mg/mL phycoerythrin.
Where [9] appears, read: 50 μM Fe solutions, with 4 mg/mL phycoerythrin, 80 μM ascorbic acid.
Setting [10] is: 50 μM Fe solutions, with 8 mg/mL phycoerythrin, 80 μM ascorbic acid.
Where [11] appears, read: 50 μM Fe solutions, without phycoerythrin, 80 μM ascorbic acid.

Regarding phycoerythrin, in data set [1], the “Thermal denaturation temperature where phycoerythrin loses its fluorescence” value worked out at 77 °C. Also, the Ferritin is on record as 12.2 ± 0.3 ng/mL in data set [2] (No Fe, 4 mg/mL phycoerythrin (section of 25 μM Fe solutions)); 7.5 ± 1.6^ ng/mL in data set [2] (No Fe, 8 mg/mL phycoerythrin (section of 25 μM Fe solutions)); 2.5 ± 0.4 ng/mL in data set [2] (No Fe, 8 mg/mL phycoerythrin (section of 50 μM Fe solutions)). For the same compound, the “Ferritin production compared to treatment with iron solutions” value in data set [2] (only 4 mg/mL phycoerythrin, no added iron) is reported as “significantly increased ferritin production”. In data set [2] (only 8 mg/mL phycoerythrin, no added iron), the “Ferritin production compared to treatment with ferric chloride” value was “significantly increased ferritin”. The “Colour change upon heating” value in data set [3] (60° C. and 70° C. for 1 hour) is given as “no colour change”; in data set [3] (crude, homogenised, before clarification, 95° C. for 5 min), “turned from red to brown”. In data set [4], the “Change of fluorescence emission with iron” value is listed as “decrease in phycoerythrin fluorescence with increasing iron concentration”.

On to `[Cl][Fe][Cl]` [Fe (II) chloride, Iron (II) chloride], for which the Ferritin in data set [2] (setting [5]) worked out at 15.8 ± 1.7 ng/mL; in data set [2] (setting [6]) it was 13.9 ± 1.8 ng/mL; in data set [2] (setting [7]), 4.4 ± 1.0 ng/mL; in data set [2] (setting [9]), 10.1 ± 3.5 ng/mL; in data set [2] (setting [10]), 16.0 ± 5.9 ng/mL; in data set [2] (setting [11]), 5.2 ± 1.6 ng/mL. Further, the “Ferritin production compared to cells only treated with the iron solution” value in data set [2] (setting [8]) is recorded as “significantly improved ferritin production”.

For `[Cl][Fe]([Cl])[Cl]` [Fe (III) chloride, Iron (III) chloride], the Ferritin is 12.7 ± 0.9 ng/mL in data set [2] (setting [5]); 12.7 ± 1.1 ng/mL in data set [2] (setting [6]); 3.3 ± 0.5 ng/mL in data set [2] (setting [7]); 13.0 ± 3.1 ng/mL in data set [2] (setting [9]); 1.8 ± 0.6 ng/mL in data set [2] (setting [10]); 1.7 ± 0.8 ng/mL in data set [2] (setting [11]). In addition, the “Ferritin production compared to cells only treated with the iron solution” value in data set [2] (setting [8]) is “significantly improved ferritin production”; in data set [2] (50 μM iron, co-treatment with 4 mg/mL phycoerythrin), “significantly improved ferritin production”.
